# Experiments:
# hydrolytic stability = type: physicochemical
# EP4 = biological target: T1, EP4 (Homo sapiens, UniProt P35408); test: Eurofins radioligand binding panel; conditions: agonist radioligand
# T1 construct: Eurofins
# From the text: (§1) Table S1. Eurofins Lead Profiling Screen Data
# (§2) This is a radioligand binding panel of 80 targets including GPCRs, ion channels, transporters and nuclear hormones. Biochemical assay results are presented as the percent inhibition of specific […]
# (§3) Results showing an inhibition or stimulation higher than 50% are considered to represent significant effect and are highlighted […]
# (§4) Target / Protein Species % Inhibition at 10
# (§5) Adenosine A1 (antagonist radioligand) human 8
# (§6) Adenosine A2A (agonist radioligand) human -1
# (§7) Adenosine A3 (agonist radioligand) human 23
# (§8) Adrenergic alpha 1 (non-selective) (antagonist radioligand) rat 19
# (§9) Adrenergic alpha 2 (non-selective) (antagonist radioligand) rat 1
# (§10) Adrenergic beta 1 (agonist radioligand) human 1
# (§11) Adrenergic beta 2 (antagonist radioligand) human -1
# (§12) AT1 (antagonist radioligand) human -1
# (§13) AT2 (agonist radioligand) human 2 […]
# (§14) BB (non-selective) (agonist radioligand) rat -20
# (§15) B2 (agonist radioligand) human 7
# (§16) CGRP (agonist radioligand) human 1
# (§17) CB1 (agonist radioligand) human 0
# (§18) CCK1 (CCKA) (agonist radioligand) human 7
# (§19) CCK2 (CCKB) (agonist radioligand) human -4
# 5-HT1A = biological target: T2, 5-HT1A (Homo sapiens, UniProt P08908); test: Eurofins radioligand binding panel; conditions: agonist radioligand
# T2 construct: Eurofins
# From the text: as §1, §2, §3, §4, §5, §6, §7, §8, §9, §10, §11, §12, §13, §14, §15, §16, §17, §18, §19
# rat PO PBL study = type: in vivo; conditions: 3 mg/kg PO
# From the text: Thus, 19d was a stable chemical entity in vivo. […] Overall, the rat PK and CNS penetration was supportive of in vivo work and progression down the development flow-chart.
# [1] = plasma exposure in satellite mice; type: in vivo; conditions: male, C57BL/6JRj, mouse, sc
# From the text: We have also employed here event-related potentials (ERPs) and auditory-evoked oscillations, which serve as critical translational biomarkers, to assess the impact of our investigational drug on sensory processing and cognitive functions, providing valuable data on its potential efficacy in treating disorders like schizophrenia. Detailed description of the methodology, setup specifications and recording procedure and analysis of the 40 Hz auditory steady-state response (ASSR) protocol can be found in Schuelert et al.[27] […] Reduced entrainment of gamma oscillation reflects abnormalities in basic sensory registration and processing but is also associated with impaired higher cognitive functions.[32] ASSR can also be reliably impaired preclinically by different NMDA receptor antagonists.[33],[34] […] Abnormalities associated with the filtering or “gating” of sensory information are among the most consistent findings in schizophrenia research.[35] N100 gating deficits also correlated with negative-cognitive deficits dimensions of schizophrenia[36] and can be modeled preclinically with NMDA receptor antagonists.[37]19d reversed N1 sensory gating deficit induced by MK-801 with the highest dose of 10 mg/kg (Figure 12B). Mean plasma exposures in satellite mice after subcutaneous administration of 19d at 0.8, 4, and 10 mg/kg were 187, 1207, and 2490 nM, respectively.
# Male C57BL/6JRj mice (12–14 weeks old, 28–30 g, n = 13–19 per treatment arm) (Janvier Laboratories, Le Genest-Saint-Isle, France) were group housed prior to surgery (four animals per cage) and single housed after surgery under standard light-dark conditions (12 h/12 h, lights on 06:00–18:00) with food and tap water available ad libitum. C57BL/6JRj mice were used as they are well suited for neurophysiological cortical network investigations using EEG techniques (Schuelert et al., 2018). […]
# Cl- channel (GABA-gated) = test: Eurofins radioligand binding panel; conditions: antagonist radioligand
# From the text: as §1, §2
# (§20) Results showing an inhibition or stimulation higher than 50% are considered to represent significant effect and are highlighted
# ETA = biological target: T3, ETA (Homo sapiens, UniProt P25101); test: Eurofins radioligand binding panel; conditions: agonist radioligand
# T3 construct: Eurofins (panel run as a service)
# From the text: as §1, §2, §20
# D4.4 = biological target: T4, D4.4 (Homo sapiens, UniProt P21917); test: Eurofins radioligand binding panel; conditions: antagonist radioligand
# T4 construct: Eurofins (panel run as a service)
# From the text: as §1, §2, §20
# ETB = biological target: T5, ETB (Homo sapiens, UniProt P24530); test: Eurofins radioligand binding panel; conditions: agonist radioligand
# T5 construct: Eurofins (panel run as a service)
# From the text: as §1, §2, §20
# Na+ channel (site 2) = test: Eurofins radioligand binding panel; conditions: antagonist radioligand
# From the text: as §1, §2, §20
# CCR1 = biological target: T6, CCR1 (Homo sapiens, UniProt P32246); test: Eurofins radioligand binding panel; conditions: agonist radioligand
# T6 construct: Eurofins (panel run as a service)
# From the text: as §1, §2, §20
# 5-HT2A = biological target: T7, 5-HT2A (Homo sapiens, UniProt P28223); test: Eurofins radioligand binding panel; conditions: antagonist radioligand
# T7 construct: Eurofins
# From the text: as §1, §2, §20
# D3 = biological target: T8, D3 (Homo sapiens, UniProt P35462); test: Eurofins radioligand binding panel; conditions: antagonist radioligand
# T8 construct: Eurofins (panel run as a service)
# From the text: as §1, §2, §20
# 5-HT7 = biological target: T9, 5-HT7 (Homo sapiens, UniProt P34969); test: Eurofins radioligand binding panel; conditions: agonist radioligand
# T9 construct: Eurofins
# From the text: as §1, §2, §20
# Y1 = biological target: T10, Y1 (Homo sapiens, UniProt P25929); test: Eurofins radioligand binding panel; conditions: agonist radioligand
# T10 construct: Eurofins
# From the text: as §1, §2, §20
# MT1 (ML1A) = biological target: T11, MT1 (ML1A) (Homo sapiens, UniProt P48039); test: Eurofins radioligand binding panel; conditions: agonist radioligand
# T11 construct: Eurofins
# From the text: as §1, §2, §20
# D1 = biological target: T12, D1 (Homo sapiens, UniProt P21728); test: Eurofins radioligand binding panel; conditions: antagonist radioligand
# T12 construct: Eurofins (panel run as a service)
# From the text: as §1, §2, §20
# Y2 = biological target: T13, Y2 (Homo sapiens, UniProt P49146); test: Eurofins radioligand binding panel; conditions: agonist radioligand
# T13 construct: Eurofins
# From the text: as §1, §2, §20
# H2 = biological target: T14, H2 (Homo sapiens, UniProt P25021); test: Eurofins radioligand binding panel; conditions: antagonist radioligand
# T14 construct: Eurofins (panel run as a service)
# From the text: as §1, §2, §20
# PPARgamma = biological target: T15, PPARgamma (Homo sapiens, UniProt P37231); test: Eurofins radioligand binding panel; conditions: agonist radioligand
# T15 construct: Eurofins
# From the text: as §1, §2, §20
# NTS1 (NT1) = biological target: T16, NTS1 (NT1) (Homo sapiens, UniProt P30989); test: Eurofins radioligand binding panel; conditions: agonist radioligand
# T16 construct: Eurofins
# From the text: as §1, §2, §20
# hERG = hERG (Homo sapiens, UniProt Q12809); test: hERG manual patch clamp assay; type: cell-based
# [2] = predicted hepatic clearance; type: in vitro ADME, cyno
# From the text: Across species, 19d had acceptable fraction unbound in both plasma (fu (plasma): 0.03 (human), 0.041 (rat), 0.025 (cyno), 0.039 (dog) and 0.056 (mouse)) and brain (fu (brain): 0.034 (rat) and 0.081 (mouse)).
# T11 sequence (P48039 whole entry): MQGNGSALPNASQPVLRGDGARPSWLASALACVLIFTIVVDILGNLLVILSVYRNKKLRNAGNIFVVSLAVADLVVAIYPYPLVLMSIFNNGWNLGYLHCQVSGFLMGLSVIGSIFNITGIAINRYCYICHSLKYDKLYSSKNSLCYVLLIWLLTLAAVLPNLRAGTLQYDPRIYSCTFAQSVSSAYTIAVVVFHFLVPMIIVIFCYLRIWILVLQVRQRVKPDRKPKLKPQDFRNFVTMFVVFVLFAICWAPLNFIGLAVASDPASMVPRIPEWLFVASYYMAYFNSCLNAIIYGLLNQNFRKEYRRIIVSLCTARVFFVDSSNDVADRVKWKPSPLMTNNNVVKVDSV
# T15 sequence (P37231 whole entry): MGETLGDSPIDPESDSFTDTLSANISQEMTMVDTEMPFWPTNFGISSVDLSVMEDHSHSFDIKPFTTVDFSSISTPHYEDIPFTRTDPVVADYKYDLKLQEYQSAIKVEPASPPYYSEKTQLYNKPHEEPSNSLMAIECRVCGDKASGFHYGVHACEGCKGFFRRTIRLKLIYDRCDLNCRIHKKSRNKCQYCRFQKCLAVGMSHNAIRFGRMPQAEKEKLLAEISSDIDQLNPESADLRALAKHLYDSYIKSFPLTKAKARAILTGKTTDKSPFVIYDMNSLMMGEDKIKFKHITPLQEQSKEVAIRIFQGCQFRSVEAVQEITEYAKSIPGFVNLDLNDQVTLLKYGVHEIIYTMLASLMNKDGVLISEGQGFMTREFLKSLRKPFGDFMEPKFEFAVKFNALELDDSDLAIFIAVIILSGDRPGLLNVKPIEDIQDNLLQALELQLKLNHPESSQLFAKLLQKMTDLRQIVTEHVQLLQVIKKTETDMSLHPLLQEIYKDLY
# T1 sequence (P35408 whole entry): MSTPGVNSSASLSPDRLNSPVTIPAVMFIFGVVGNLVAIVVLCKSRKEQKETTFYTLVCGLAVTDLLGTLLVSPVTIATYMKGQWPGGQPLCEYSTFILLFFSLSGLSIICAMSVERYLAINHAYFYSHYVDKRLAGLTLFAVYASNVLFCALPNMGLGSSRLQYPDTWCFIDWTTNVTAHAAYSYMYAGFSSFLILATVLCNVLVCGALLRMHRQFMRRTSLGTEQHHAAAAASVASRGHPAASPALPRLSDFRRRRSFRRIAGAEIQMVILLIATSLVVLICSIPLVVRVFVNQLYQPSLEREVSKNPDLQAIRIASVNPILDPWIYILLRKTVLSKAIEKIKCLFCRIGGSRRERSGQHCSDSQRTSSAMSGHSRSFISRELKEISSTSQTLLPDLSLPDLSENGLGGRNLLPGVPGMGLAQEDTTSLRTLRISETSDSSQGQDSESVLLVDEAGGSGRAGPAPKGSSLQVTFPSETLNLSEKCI
# T7 sequence (P28223 whole entry): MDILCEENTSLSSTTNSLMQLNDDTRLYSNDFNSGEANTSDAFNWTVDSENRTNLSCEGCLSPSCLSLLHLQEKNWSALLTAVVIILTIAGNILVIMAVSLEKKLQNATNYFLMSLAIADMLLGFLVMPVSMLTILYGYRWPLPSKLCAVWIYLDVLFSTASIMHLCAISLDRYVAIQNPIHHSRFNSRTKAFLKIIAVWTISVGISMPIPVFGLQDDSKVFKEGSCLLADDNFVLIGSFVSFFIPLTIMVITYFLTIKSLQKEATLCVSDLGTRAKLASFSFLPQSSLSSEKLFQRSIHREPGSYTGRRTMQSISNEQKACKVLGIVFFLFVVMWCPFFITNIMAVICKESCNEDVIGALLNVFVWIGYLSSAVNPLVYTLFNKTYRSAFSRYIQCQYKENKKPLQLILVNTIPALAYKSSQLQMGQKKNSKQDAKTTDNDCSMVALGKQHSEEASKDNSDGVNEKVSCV
# T5 sequence (P24530 27-442): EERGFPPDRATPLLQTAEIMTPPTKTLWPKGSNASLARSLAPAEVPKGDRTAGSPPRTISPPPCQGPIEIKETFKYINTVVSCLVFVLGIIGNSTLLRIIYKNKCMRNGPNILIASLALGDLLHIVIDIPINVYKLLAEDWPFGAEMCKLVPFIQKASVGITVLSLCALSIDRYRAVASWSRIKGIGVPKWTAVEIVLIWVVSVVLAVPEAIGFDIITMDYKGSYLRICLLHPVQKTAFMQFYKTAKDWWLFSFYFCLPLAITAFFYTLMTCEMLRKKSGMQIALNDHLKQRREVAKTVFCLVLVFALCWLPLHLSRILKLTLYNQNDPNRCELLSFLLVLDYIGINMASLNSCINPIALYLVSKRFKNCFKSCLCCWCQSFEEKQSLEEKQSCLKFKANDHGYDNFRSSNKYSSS
# Sequence of hERG (Q12809 whole entry): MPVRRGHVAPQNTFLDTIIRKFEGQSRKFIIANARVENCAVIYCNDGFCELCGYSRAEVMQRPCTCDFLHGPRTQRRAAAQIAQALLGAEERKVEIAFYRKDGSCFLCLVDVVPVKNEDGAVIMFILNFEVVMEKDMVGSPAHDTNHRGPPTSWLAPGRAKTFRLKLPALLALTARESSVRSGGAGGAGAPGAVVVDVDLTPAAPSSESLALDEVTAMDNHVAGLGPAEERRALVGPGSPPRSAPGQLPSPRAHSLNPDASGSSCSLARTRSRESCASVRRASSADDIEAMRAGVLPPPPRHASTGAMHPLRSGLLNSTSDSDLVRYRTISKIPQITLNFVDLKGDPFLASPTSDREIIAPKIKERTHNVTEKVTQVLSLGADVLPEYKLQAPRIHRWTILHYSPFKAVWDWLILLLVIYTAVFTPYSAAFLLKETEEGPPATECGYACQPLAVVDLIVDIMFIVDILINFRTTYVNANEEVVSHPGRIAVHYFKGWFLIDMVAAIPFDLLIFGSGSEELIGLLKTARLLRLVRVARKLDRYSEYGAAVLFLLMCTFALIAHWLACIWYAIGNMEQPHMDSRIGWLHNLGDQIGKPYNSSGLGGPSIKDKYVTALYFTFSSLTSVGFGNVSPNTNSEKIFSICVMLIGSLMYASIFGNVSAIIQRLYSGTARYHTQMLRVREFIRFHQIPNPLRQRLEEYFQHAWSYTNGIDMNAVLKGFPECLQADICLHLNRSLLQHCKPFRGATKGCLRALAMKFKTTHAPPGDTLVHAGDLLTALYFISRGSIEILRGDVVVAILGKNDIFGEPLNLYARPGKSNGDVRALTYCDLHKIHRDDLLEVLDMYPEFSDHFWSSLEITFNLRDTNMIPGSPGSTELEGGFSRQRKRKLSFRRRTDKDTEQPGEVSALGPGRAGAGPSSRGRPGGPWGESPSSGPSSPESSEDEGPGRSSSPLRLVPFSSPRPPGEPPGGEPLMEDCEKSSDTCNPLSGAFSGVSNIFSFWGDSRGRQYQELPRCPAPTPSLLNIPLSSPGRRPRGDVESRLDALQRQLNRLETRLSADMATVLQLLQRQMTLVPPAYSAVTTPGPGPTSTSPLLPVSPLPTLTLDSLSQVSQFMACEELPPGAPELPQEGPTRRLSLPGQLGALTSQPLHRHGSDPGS
# T2 sequence (P08908 whole entry): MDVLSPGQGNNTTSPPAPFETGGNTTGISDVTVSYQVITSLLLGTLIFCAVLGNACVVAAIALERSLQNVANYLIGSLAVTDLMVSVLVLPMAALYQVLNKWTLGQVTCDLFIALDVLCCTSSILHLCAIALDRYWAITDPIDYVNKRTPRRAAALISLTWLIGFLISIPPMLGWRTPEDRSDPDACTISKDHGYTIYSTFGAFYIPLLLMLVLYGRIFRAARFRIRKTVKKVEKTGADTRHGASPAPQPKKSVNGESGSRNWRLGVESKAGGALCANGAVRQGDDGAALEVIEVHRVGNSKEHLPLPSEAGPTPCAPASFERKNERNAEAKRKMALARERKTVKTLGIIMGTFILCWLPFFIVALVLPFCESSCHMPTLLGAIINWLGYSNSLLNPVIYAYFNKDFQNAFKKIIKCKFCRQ
# T14 sequence (P25021 whole entry): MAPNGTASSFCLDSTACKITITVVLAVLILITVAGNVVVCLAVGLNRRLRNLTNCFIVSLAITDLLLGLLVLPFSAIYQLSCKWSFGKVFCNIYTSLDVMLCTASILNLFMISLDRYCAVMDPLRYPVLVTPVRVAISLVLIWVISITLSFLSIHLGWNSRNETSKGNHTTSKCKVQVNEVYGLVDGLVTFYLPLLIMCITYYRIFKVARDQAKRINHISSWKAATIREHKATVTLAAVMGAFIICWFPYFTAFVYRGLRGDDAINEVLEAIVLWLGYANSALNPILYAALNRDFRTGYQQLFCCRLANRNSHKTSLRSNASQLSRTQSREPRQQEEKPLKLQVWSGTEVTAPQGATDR
# T6 sequence (P32246 whole entry): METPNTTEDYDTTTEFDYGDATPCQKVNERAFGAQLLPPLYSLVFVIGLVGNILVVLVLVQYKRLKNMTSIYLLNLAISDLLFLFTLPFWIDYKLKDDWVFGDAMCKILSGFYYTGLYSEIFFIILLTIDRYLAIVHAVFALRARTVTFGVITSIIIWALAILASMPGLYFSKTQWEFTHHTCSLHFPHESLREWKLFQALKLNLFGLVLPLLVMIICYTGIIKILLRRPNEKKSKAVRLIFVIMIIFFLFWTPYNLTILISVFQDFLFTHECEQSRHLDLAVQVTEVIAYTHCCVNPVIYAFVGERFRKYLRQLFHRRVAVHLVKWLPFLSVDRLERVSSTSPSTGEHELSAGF
# T3 sequence (P25101 21-427): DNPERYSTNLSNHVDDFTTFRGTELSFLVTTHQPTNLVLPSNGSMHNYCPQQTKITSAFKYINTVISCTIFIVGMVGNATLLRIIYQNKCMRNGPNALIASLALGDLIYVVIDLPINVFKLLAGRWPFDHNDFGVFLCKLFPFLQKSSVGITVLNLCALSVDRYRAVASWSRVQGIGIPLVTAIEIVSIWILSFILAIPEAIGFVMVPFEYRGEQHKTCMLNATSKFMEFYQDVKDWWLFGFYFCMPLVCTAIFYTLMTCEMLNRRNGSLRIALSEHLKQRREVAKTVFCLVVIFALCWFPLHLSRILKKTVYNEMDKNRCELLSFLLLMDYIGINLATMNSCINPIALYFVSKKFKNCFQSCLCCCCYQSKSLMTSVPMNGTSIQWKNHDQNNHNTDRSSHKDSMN
compound,measurement,setting,value
"Cn1nc(-c2ccnn2C)cc1CNC(=O)c1cc(-c2ccco2)ccc1Cl [Compound 19d, 2-Chloro-N-((1,2′-dimethyl-1H,2’H-[3,3′-bipyrazol]-5-yl)methyl)-5-(furan-2-yl)benzamide]",hydrolytic stability,"hydrolytic stability; acidic, pH 2.2",hydrolytically stable
same,hydrolytic stability,"hydrolytic stability; neutral, pH 7.4",hydrolytically stable
same,inhibition at 10 µM,EP4,62%
same,inhibition at 10 µM,5-HT1A,51%
same,unbound brain concentration Br[unbound],rat PO PBL study; at Tmax,100 nM
same,Kp,"rat PO PBL study; brain, 15 min to 7 h",~0.5
same,concentration at 60 min,[1]; 0.8 mg/kg s.c.,187 nM
same,concentration at 60 min,[1]; 4 mg/kg s.c.,1210 nM
same,concentration at 60 min,[1]; 10 mg/kg s.c.,2490 nM
same,% Inhibition at 10 µM,Cl- channel (GABA-gated),9%
same,inhibition at 10 µM,ETA,-6%
same,inhibition at 10 µM,D4.4,22%
same,inhibition at 10 µM,ETB,-27%
same,% Inhibition at 10 µM,Na+ channel (site 2),14%
same,inhibition at 10 µM,CCR1,-1%
same,inhibition at 10 µM,5-HT2A,-1%
same,inhibition at 10 µM,D3,-6%
same,inhibition at 10 µM,5-HT7,-4%
same,inhibition at 10 µM,Y1,-7%
same,inhibition at 10 µM,MT1 (ML1A),17%
same,inhibition at 10 µM,D1,3%
same,inhibition at 10 µM,Y2,-18%
same,inhibition at 10 µM,H2,-31%
same,inhibition at 10 µM,PPARgamma,2%
same,inhibition at 10 µM,NTS1 (NT1),-1%
same,IC50,hERG,> 10 µM
same,"CLhep, cyno",[2],31 mL/min/kg

# Reference: publication PMC11684029, “Discovery of VU6024578/BI02982816: An mGlu1 Positive Allosteric Modulator with Efficacy in Preclinical Antipsychotic and Cognition Models” (Journal of Medicinal Chemistry, 2024)
